Structures can show the parent of a compound that is named as a salt. Where two headings read alike, the source gives them in different places.
Assays:
[1] = test system: HCV genotype 1a H77 NS3-5B bicistronic subgenomic replicon; test: microbe, parasite or virus in culture; type: cell-based; conditions: Hepatitis C virus
Description: (§1) Two cell lines were used for screening of compounds for inhibiting HCV RNA replication (genoytype 1a and 1b). Genotype la replicon cells, are a Huh-7 derived cell line bearing the genotype 1a H77NS3-5B bicistronic subgenomic replicon. See, Blight, et al., J. Virol. (2003) 77(5): 3181-3190.
(§2) The genotype 1a replicon contains several adaptive mutations (NS4B Q31H, NS5A K68R, NS5A S232I), the luciferase gene and encodes for neomycin resistance. The genotype 1b replicon, also referred to as the ET replicon, is stably transfected with RNA transcripts harboring a I389luc-ubi-neo/NS3-3′/ET replicon with firefly luciferase-ubiquitin-neomycin phosphotransferase fusion protein and EMCV-IRES driven NS3-5B polyprotein containing the cell culture adaptive mutations (E1202G; T12801; K1846T) See, Kreiger, et al., Journal of Virology 75:4614-4624 (2001). Both cell lines were grown in DMEM, supplemented with 10% fetal calf serum, 2 mM Glutamine, Penicillin (100 IU/mL)/Streptomycin (100 μg/mL), 1×nonessential amino acids, and 250 μg/mL G418 (“Geneticin”). They were all available through Life Technologies (Bethesda, Md.). The cells were plated at 0.5×10^4 cells/well in 384 well plates containing compounds. The final concentration of compounds ranged between 0.1 nM to 50 μM and the final DMSO concentration of 0.5%.
(§3) Luciferase activity was measured 48 hours later by adding a Steady glo (Promega, Madison, Wis.). Percent inhibition of replication data was plotted relative to no compound control. Under the same condition, cytotoxicity of the compounds was determined using cell titer glo (Promega, Madison, Wis.). EC50 values were determined from a 10 point dose response curve using 2-4 fold serial dilutions for each compound, which spans a concentration range of at least a 1000 fold. Replicon EC50 values, the concentration of compound required to inhibit 50% of the assay response, were calculated by curve fitting data to the Hill equation, using a non-linear least-squares curve-fitting program. The software tested the data for quality and rejected compounds with high and low activity before fitting the equation below.
(§4) Analysis was performed using an XC50 module and BioAssay Enterprise (Cambridge Soft).

[2] = test system: HCV genotype 1b replicon (ET replicon); test: microbe, parasite or virus in culture; type: cell-based; conditions: Hepatitis C virus
Description: as §1, §2, §3, §4

[3] = Table 2, luciferase activity after 48 hours, read-out: HCV Genotype 1A Replicon EC50
[4] = Table 2, luciferase activity after 48 hours, read-out: HCV Genotype 1B Replicon EC50

SMILES | EC50 [1, 3] [nM] | EC50 [2, 4] [nM] | further results
CCCOc1ccc(-c2cc(C(C(=O)OCC)n3cc4nc(-c5cccc(F)c5F)nc-4cn3)on2)c(C(F)(F)F)c1 (stereo not drawn) [Compound 2, Ethyl [2-(2,3-difluorophenyl)-5H-imidazo[4,5-d]pyridazin-5-yl]{3-[4-(propyloxy)-2-(trifluoromethyl)phenyl]-5-isoxazolyl}acetate] | 12 | 4 | 
CCCOc1ccc(-c2cc(C(C(=O)OCCOCCOC)n3cc4nc(-c5cccc(F)c5F)nc-4cn3)on2)c(C(F)(F)F)c1 (stereo not drawn) [Compound 9, 2-{[2-(Methyloxy)ethyl]oxy}ethyl [2-(2,3-difluorophenyl)-5H-imidazo[4,5-d]pyridazin-5-yl]{3-[4-(propyloxy)-2-(trifluoromethyl)phenyl]-5-isoxazolyl}acetate] | 2 | 4 | 
CCCOc1ccc(-c2cc(C(C(=O)OCCC(=O)O)n3cc4nc(-c5cccc(F)c5F)nc-4cn3)on2)c(C(F)(F)F)c1 (stereo not drawn) [Compound 16, 3-[([2-(2,3-Difluorophenyl)-5H-imidazo[4,5-d]pyridazin-5-yl]{3-[4-(propyloxy)-2-(trifluoromethyl)phenyl]-5-isoxazolyl}acetyl)oxy]propanoic acid sodium salt] | 32 | 3 | 
CCCOc1ccc(-c2cc(C(C(=O)OCCOCCOCCO)n3cc4nc(-c5cccc(F)c5F)nc-4cn3)on2)c(C(F)(F)F)c1 (stereo not drawn) [Compound 11, 2-({2-[(2-Hydroxyethyl)oxy]ethyl}oxy)ethyl [2-(2,3-difluorophenyl)-5H-imidazo[4,5-d]pyridazin-5-yl]{3-[4-(propyloxy)-2-(trifluoromethyl)phenyl]-5-isoxazolyl}acetate] | 21 | 3 | 
CCCOc1ccc(-c2cc(C(C(=O)OCCOCCOCCOCCO)n3cc4nc(-c5cccc(F)c5F)nc-4cn3)on2)c(C(F)(F)F)c1 (stereo not drawn) [Compound 12, 2-{[2-({2-[(2-Hydroxyethyl)oxy]ethyl}oxy)ethyl]oxy}ethyl [2-(2,3-difluorophenyl)-5H-imidazo[4,5-d]pyridazin-5-yl]{3-[4-(propyloxy)-2-(trifluoromethyl)phenyl]-5-isoxazolyl}acetate] | 17 | 1 | 
CCCOc1ccc(-c2ccc(C(C(=O)OC(C)C)n3cc4nc(-c5cccc(F)c5F)nc-4cn3)cn2)c(C(F)(F)F)c1 (stereo not drawn) [Compound 42, 1-Methylethyl [2-(2,3-difluorophenyl)-5H-imidazo[4,5-d]pyridazin-5-yl]{6-[4-(propyloxy)-2-(trifluoromethyl)phenyl]-3-pyridinyl}acetate] | 980 | 510 | 
CCCOc1ccc(-c2ccc(C(C(=O)OCC)n3cc4nc(-c5cccc(F)c5F)nc-4cn3)cn2)c(C(F)(F)F)c1 (stereo not drawn) [Compound 40, Ethyl [2-(2,3-difluorophenyl)-5H-imidazo[4,5-d]pyridazin-5-yl]{6-[4-(propyloxy)-2-(trifluoromethyl)phenyl]-3-pyridinyl}acetate] |  | 440 | 
CCCOc1ccc(-c2cc(C(C(=O)OCCCOS(=O)(=O)O)n3cc4nc(-c5cccc(F)c5F)nc-4cn3)on2)c(C(F)(F)F)c1 (stereo not drawn) [Compound 15, 3-(Sulfooxy)propyl [2-(2,3-difluorophenyl)-5H-imidazo[4,5-d]pyridazin-5-yl]{3-[4-(propyloxy)-2-(trifluoromethyl)phenyl]-5-isoxazolyl}acetate sodium salt] | 14 | 2 | 
CCCCOC(=O)C(c1cc(-c2ccc(OCCC)cc2C(F)(F)F)no1)n1cc2nc(-c3cccc(F)c3F)nc-2cn1 (stereo not drawn) [Compound 7, Butyl [2-(2,3-difluorophenyl)-5H-imidazo[4,5-d]pyridazin-5-yl]{3-[4-(propyloxy)-2-(trifluoromethyl)phenyl]-5-isoxazolyl}acetate] | 11 | 5 | 
CCCOc1ccc(-c2ccc(C(C(=O)OC)n3cc4nc(-c5cccc(F)c5F)nc-4cn3)cn2)c(C(F)(F)F)c1 (stereo not drawn) [Compound 39, Methyl [2-(2,3-difluorophenyl)-5H-imidazo[4,5-d]pyridazin-5-yl]{6-[4-(propyloxy)-2-(trifluoromethyl)phenyl]-3-pyridinyl}acetate] | 9440 | 800 | 
CCCOc1ccc(-c2cc(C(C(=O)OC(C)(C)C)n3cc4nc(-c5cccc(F)c5F)nc-4cn3)on2)c(C(F)(F)F)c1 (stereo not drawn) [Compound 6, 1,1-Dimethylethyl [2-(2,3-difluorophenyl)-5H-imidazo[4,5-d]pyridazin-5-yl]{3-[4-(propyloxy)-2-(trifluoromethyl)phenyl]-5-isoxazolyl}acetate] | 65 | 16 | 
CCCOc1ccc(-c2cc(C(C(=O)OC(C)C)n3cc4nc(-c5cccc(F)c5F)nc-4cn3)on2)c(C(F)(F)F)c1 (stereo not drawn) [Compound 4, 1-Methylethyl [2-(2,3-difluorophenyl)-5H-imidazo[4,5-d]pyridazin-5-yl]{3-[4-(propyloxy)-2-(trifluoromethyl)phenyl]-5-isoxazolyl}acetate] | 30 | 10 | 
CC(CO)(CO)COC(=O)C(c1cc(-c2ccc(C3CC3)cc2C(F)(F)F)no1)n1cc2nc(-c3cccc(F)c3F)nc-2cn1 (stereo not drawn) [Compound 180, 3-hydroxy-2-(hydroxymethyl)-2-methylpropyl {3-[4-cyclopropyl-2-(trifluoromethyl)phenyl]-5-isoxazolyl}[2-(2,3-difluorophenyl)-5H-imidazo[4,5-d]pyridazin-5-yl]acetate] |  |  | EC50 ([1]; Table 3, luciferase activity after 48 hours, read-out: HCV Genotype 1A Replicon EC50): 79 nM; EC50 ([2]; Table 3, luciferase activity after 48 hours, read-out: HCV Genotype 1B Replicon EC50): 8 nM
CCCOc1ccc(-c2cc(C(C(=O)OCCCO)n3cc4nc(-c5cccc(F)c5F)nc-4cn3)on2)c(C(F)(F)F)c1 (stereo not drawn) [Compound 5, 3-Hydroxypropyl [2-(2,3-difluorophenyl)-5H-imidazo[4,5-d]pyridazin-5-yl]{3-[4-(propyloxy)-2-(trifluoromethyl)phenyl]-5-isoxazolyl}acetate] | 24 | 6 | 
CCCOc1ccc(-c2cc(C(C(=O)OCCCOP(=O)(O)O)n3cc4nc(-c5cccc(F)c5F)nc-4cn3)on2)c(C(F)(F)F)c1 (stereo not drawn) [Compound 14, 3-(Phosphonooxy)propyl [2-(2,3-difluorophenyl)-5H-imidazo[4,5-d]pyridazin-5-yl]{3-[4-(propyloxy)-2-(trifluoromethyl)phenyl]-5-isoxazolyl}acetate mono sodium salt] |  |  | EC50 ([1]; 48 h, read-out: HCV Genotype 1A Replicon EC50 (nM)): 42 nM; EC50 ([2]; 48 h, read-out: HCV Genotype 1B Replicon EC50 (nM)): 3 nM
CCCOc1ccc(-c2cc(C(C(=O)NC)n3cc4nc(-c5cccc(F)c5F)nc-4cn3)on2)c(C(F)(F)F)c1 (stereo not drawn) [Compound 20, 2-[2-(2,3-Difluorophenyl)-5H-imidazo[4,5-d]pyridazin-5-yl]-N-methyl-2-{3-[4-(propyloxy)-2-(trifluoromethyl)phenyl]-5-isoxazolyl}acetamide] | 920 | 65 | 
CCCOC(=O)C(c1ccc(-c2ccc(OCCC)cc2C(F)(F)F)nc1)n1cc2nc(-c3cccc(F)c3F)nc-2cn1 (stereo not drawn) [Compound 41, Propyl [2-(2,3-difluorophenyl)-5H-imidazo[4,5-d]pyridazin-5-yl]{6-[4-(propyloxy)-2-(trifluoromethyl)phenyl]-3-pyridinyl}acetate] | 900 | 2700 | 
CCCOc1ccc(-c2ncc(C(C(=O)OC)n3cc4nc(-c5cccc(F)c5F)nc-4cn3)cn2)c(C(F)(F)F)c1 (stereo not drawn) [Compound 58, Methyl [2-(2,3-difluorophenyl)-5H-imidazo[4,5-d]pyridazin-5-yl]{2-[4-(propyloxy)-2-(trifluoromethyl)phenyl]-5-pyrimidinyl}acetate] | 2600 | 270 | 
CCCOc1ccc(-c2cc(C(C(=O)OCCCCN(C)C)n3cc4nc(-c5cccc(F)c5F)nc-4cn3)on2)c(C(F)(F)F)c1 (stereo not drawn) [Compound 173, 4-(Dimethylamino)butyl [2-(2,3-difluorophenyl)-5H-imidazo[4,5-d]pyridazin-5-yl]{3-[4-(propyloxy)-2-(trifluoromethyl)phenyl]-5-isoxazolyl}acetate dihydrochloride] | 20 | 3 | 
CCCOc1ccc(-c2cc(C(C(=O)OC)n3cc4nc(-c5cccc(F)c5F)nc-4cn3)on2)c(C(F)(F)F)c1 (stereo not drawn) [Compound 1, Methyl [2-(2,3-difluorophenyl)-5H-imidazo[4,5-d]pyridazin-5-yl]{3-[4-(propyloxy)-2-(trifluoromethyl)phenyl]-5-isoxazolyl}acetate] | 17 | 3 | 

Source: patent US20110052534A1, “Imidazopyridazine Compounds for Treating Viral Infections” (priority 2009, published 2011)
